This note sets out measurements from ChEMBL document CHEMBL2439947, “Intermolecular interaction of voriconazole analogues with model membrane by DSC and NMR, and their antifungal activity using NMR based metabolic profiling” (2013).

Values after ≈ are worked out from the molar mass of the structure shown. Active and inactive are the calls of the source.

In test [1] the test system is Candida albicans. Description: Antifungal activity against Candida albicans ATCC 10231 assessed as pyruvate level after 32 hrs by [1H] NMR spectroscopic analysis. In kind it is functional.
Test [2] relates to Candida albicans. Description: Antifungal activity against Candida albicans ATCC 10231 assessed as acetate level after 32 hrs by [1H] NMR spectroscopic analysis. In kind it is functional.
Test [3] has as its system Candida albicans. Description: Antifungal activity against Candida albicans ATCC 10231 assessed as ethanol level after 32 hrs by [1H] NMR spectroscopic analysis. The class given is functional.
The test system of test [4] is Candida albicans. Description: Antifungal activity against Candida albicans ATCC 10231 assessed as pyruvate level after 24 hrs by [1H] NMR spectroscopic analysis. The class given is functional.
Test [5] has as its system Candida albicans. Description: Antifungal activity against Candida albicans ATCC 10231 assessed as acetate level after 24 hrs by [1H] NMR spectroscopic analysis. The class given is functional.
Test [6] concerns Candida albicans. The test is described as follows: Antifungal activity against Candida albicans ATCC 10231 assessed as ethanol level after 24 hrs by [1H] NMR spectroscopic analysis. The class given is functional.
Test [7] concerns Candida albicans. The test is described as follows: Antifungal activity against Candida albicans ATCC 10231 assessed as pyruvate level after 18 hrs by [1H] NMR spectroscopic analysis. The class given is functional.
The subject of test [8] is Candida albicans. Description: Antifungal activity against Candida albicans ATCC 10231 assessed as acetate level after 18 hrs by [1H] NMR spectroscopic analysis. In kind it is functional.
In test [9] the test system is Candida albicans. Description: Antifungal activity against Candida albicans ATCC 10231 assessed as ethanol level after 18 hrs by [1H] NMR spectroscopic analysis. In kind it is functional.
In test [10] the test system is Candida albicans. Description: Antifungal activity against Candida albicans ATCC 10231 after 48 hrs by tube dilution method. The class given is functional. Particulars: ATCC 10231, 48 h.
The subject of test [11] is Candida albicans. The test is described as follows: Antifungal activity against Candida albicans ATCC 10231 after 24 hrs by broth microdilution method. The class given is functional. The settings on record: ATCC 10231, 24 h.
Test [12] relates to Lipid bilayer. Description: Binding affinity to DPPC liposomes at 1:5 drug to DPPC liposome molar ratio by [13C] NMR spectroscopic analysis.
Test [13] concerns Lipid bilayer. The test is described as follows: Binding affinity to DPPC liposomes at 1:2 to 1:10 drug to DPPC liposome molar ratio by [31P] NMR spectroscopic analysis.
Test [14] concerns Lipid bilayer. The test is described as follows: Binding affinity to DPPC liposomes by 2D-NOESY spectroscopic analysis.
Test [15] relates to Lipid bilayer. Description: Binding affinity to DPPC liposomes assessed as melting temperature at 1:2 drug to DPPC liposome molar ratio by differential scanning calorimetric analysis. For orientation: DSC measures the heat that a sample takes up or gives off during a temperature scan.
For test [16], the system named is Lipid bilayer. The test is described as follows: Binding affinity to DPPC liposomes assessed as melting temperature at 1:5 drug to DPPC liposome molar ratio by differential scanning calorimetric analysis.
Test [17] deals with Lipid bilayer. The test is described as follows: Binding affinity to DPPC liposomes assessed as melting temperature at 1:10 drug to DPPC liposome molar ratio by differential scanning calorimetric analysis.
In test [18] the test system is Lipid bilayer. Description: Binding affinity to DPPC liposomes assessed as change in pre-transition temperature at 1:2 drug to DPPC liposome molar ratio by differential scanning calorimetric analysis.
The test system of test [19] is Lipid bilayer. The test is described as follows: Binding affinity to DPPC liposomes assessed as change in pre-transition temperature at 1:10 drug to DPPC liposome molar ratio by differential scanning calorimetric analysis.
Test [20] deals with Lipid bilayer. Description: Binding affinity to DPPC liposomes assessed as change in pre-transition temperature at 1:5 drug to DPPC liposome molar ratio by differential scanning calorimetric analysis.
Test [21] relates to Lipid bilayer. Description: Binding affinity to DPPC liposomes after 2 hrs by double reciprocal plot analysis.
The subject of test [22] is Lipid bilayer. Description: Binding affinity to DPPC liposomes at 1:5 drug to DPPC liposome molar ratio by [1H] NMR spectroscopic analysis.
For test [23], the system named is Lipid bilayer. The test is described as follows: Binding affinity to DPPC liposomes after 2 hrs by spectrophotometric analysis relative to control.

Broadly, the MIC is the smallest concentration in the dilution series that meets the test's criterion for growth inhibition. On to `C[C@@H](c1ncncc1F)[C@@](Cn1cncn1)(OC(=O)c1ccccc1)c1ccc(F)cc1F` [VORICONAZOLE BENZOATE], for which the Activity with Candida albicans [1] is 3 µg/mL; in the test with Candida albicans [2] it was 4 µg/mL; in the test with Candida albicans [3], 4 µg/mL; in the test with Candida albicans [4], 3 µg/mL; in the test on Candida albicans [5] it was 4 µg/mL; in the test with Candida albicans [6], 4 µg/mL. For the same molecule, the results for the Activity with Candida albicans [7], in the test on Candida albicans [8] and in the test with Candida albicans [9] were 4 µg/mL, 6 µg/mL and 5 µg/mL, respectively. Moreover, the MIC in the test with Candida albicans [10] and in the test on Candida albicans [11] was 4 µg/mL (≈ 8.82 µM) throughout. Further, the outcome with Lipid bilayer [12], with Lipid bilayer [13], with Lipid bilayer [14], with Lipid bilayer [18], in the test on Lipid bilayer [20] and in the test on Lipid bilayer [22] was Active. In addition, the results for the Tm in the test on Lipid bilayer [15], in the test on Lipid bilayer [16] and in the test with Lipid bilayer [17] were 39.5 °C, 39.5 °C and 40.9 °C, respectively. Also, the T with Lipid bilayer [19] was 30.1 °C. Besides, in the test on Lipid bilayer [21], the Kapp turned out to be 1.22 M⁻¹.
Regarding `COc1ccc(C(=O)O[C@@](Cn2cncn2)(c2ccc(F)cc2F)[C@@H](C)c2ncncc2F)cc1` [VORICONAZOLE P-METHOXY BENZOATE], the Activity was 1 µg/mL in the test on Candida albicans [1]; 2 µg/mL with Candida albicans [2]; 2 µg/mL in the test with Candida albicans [3]; 1 µg/mL in the test with Candida albicans [4]; 3 µg/mL with Candida albicans [5]; 3 µg/mL in the test with Candida albicans [6]. For the same molecule, the Activity in the test on Candida albicans [7] is 2 µg/mL; in the test with Candida albicans [8] it was 4 µg/mL; in the test with Candida albicans [9] it was 3 µg/mL; in the test on Lipid bilayer [23] it was 50%. The minimal inhibitory concentration (MIC) with Candida albicans [10] and with Candida albicans [11] was 3 µg/mL (≈ 6.21 µM) each time. Moreover, the outcome in the test with Lipid bilayer [12], in the test with Lipid bilayer [13], in the test on Lipid bilayer [14], with Lipid bilayer [18], in the test with Lipid bilayer [19] and with Lipid bilayer [20] was Active. The result in the test with Lipid bilayer [22] was Active. The Tm with Lipid bilayer [15] was 38.3 °C; with Lipid bilayer [16], 39.1 °C; with Lipid bilayer [17], 39.2 °C. The same molecule registered a Kapp with Lipid bilayer [21] of 1.16 M⁻¹.
Turning to `C[C@@H](c1ncncc1F)[C@@](Cn1cncn1)(OC(=O)c1ccc([N+](=O)[O-])cc1)c1ccc(F)cc1F` [VORICONAZOLE P-NITRO BENZOATE], the Activity with Candida albicans [1] is 5 µg/mL; with Candida albicans [2], 6 µg/mL; with Candida albicans [3], 7 µg/mL; in the test on Candida albicans [4] it was 5 µg/mL; with Candida albicans [5] it was 7 µg/mL; in the test with Candida albicans [6], 7 µg/mL. Moreover, the values for the Activity with Candida albicans [7], in the test with Candida albicans [8] and with Candida albicans [9] were 5 µg/mL, 8 µg/mL and 8 µg/mL, respectively. In addition, the MIC in the test on Candida albicans [10] was determined as 8 µg/mL (≈ 16.1 µM); against Candida albicans [11] it was 7 µg/mL (≈ 14 µM). Further, the result with Lipid bilayer [12], in the test with Lipid bilayer [13], in the test on Lipid bilayer [14], in the test on Lipid bilayer [18], in the test with Lipid bilayer [19] and in the test with Lipid bilayer [20] was Active. The result with Lipid bilayer [22] was Active. Besides, the Tm came out at 59.6 °C in the test with Lipid bilayer [15], 60 °C in the test on Lipid bilayer [16] and 60 °C with Lipid bilayer [17]. Further, in the test with Lipid bilayer [21], the Kapp amounted to 0.505 M⁻¹.
Regarding `Cc1ccc(C(=O)O[C@@](Cn2cncn2)(c2ccc(F)cc2F)[C@@H](C)c2ncncc2F)cc1` [VORICONAZOLE TOLUATE], the Activity in the test with Candida albicans [1] was 3 µg/mL; with Candida albicans [2], 5 µg/mL; in the test with Candida albicans [3] it was 4 µg/mL; in the test on Candida albicans [4] it was 3 µg/mL; in the test with Candida albicans [5], 6 µg/mL; with Candida albicans [6], 5 µg/mL. Further, the Activity with Candida albicans [7] was found to be 4 µg/mL; in the test with Candida albicans [8], 6 µg/mL; in the test on Candida albicans [9] it was 5 µg/mL. For the same molecule, the MIC against Candida albicans [10] and in the test on Candida albicans [11] was 5 µg/mL (≈ 10.7 µM) throughout. Besides, the result in the test with Lipid bilayer [12], in the test with Lipid bilayer [13], in the test with Lipid bilayer [14], in the test on Lipid bilayer [18], with Lipid bilayer [19] and in the test with Lipid bilayer [20] was Active. Also, the outcome with Lipid bilayer [22] was Active. In addition, the values for the Tm in the test with Lipid bilayer [15], in the test with Lipid bilayer [16] and in the test with Lipid bilayer [17] were 32.4 °C, 32.6 °C and 34 °C, respectively. Further, in the test on Lipid bilayer [21], the Kapp came out at 0.871 M⁻¹.
As to `C[C@@H](c1ncncc1F)[C@](O)(Cn1cncn1)c1ccc(F)cc1F` [VORICONAZOLE], the Activity in the test with Candida albicans [1] came out at 1 µg/mL; in the test on Candida albicans [2], 2 µg/mL; in the test with Candida albicans [3], 1 µg/mL; in the test with Candida albicans [4], 1 µg/mL; with Candida albicans [5] it was 2 µg/mL; in the test with Candida albicans [6], 1 µg/mL. Moreover, the Activity with Candida albicans [7] turned out to be 1 µg/mL; with Candida albicans [8], 3 µg/mL; in the test on Candida albicans [9], 2 µg/mL. For the same molecule, the minimum inhibitory concentration (MIC) in the test with Candida albicans [10] and with Candida albicans [11] was 1 µg/mL (≈ 2.86 µM) throughout. Also, the result in the test on Lipid bilayer [12], with Lipid bilayer [14], in the test on Lipid bilayer [18], in the test on Lipid bilayer [19], in the test with Lipid bilayer [20] and with Lipid bilayer [22] was Active. Also, the outcome in the test on Lipid bilayer [13] was inactive. Moreover, the Tm is 37.4 °C in the test on Lipid bilayer [15], 38.5 °C in the test with Lipid bilayer [16] and 38.5 °C in the test with Lipid bilayer [17]. The Kapp in the test on Lipid bilayer [21] was 0.0543 M⁻¹.
